Like-named read-outs stand apart in the source and are kept apart here. Positions of bridges follow the written chain, without caps; N, C: chain ends. Residues, ends and D or L forms follow the SMILES beside them. Bounds are passed on as bounds.

For one assay, the target named is S. epidermidis agr-II (Staphylococcus epidermidis, UniProt Q8VSX5). The experiment in a line: cell-based. In kind it is cell-based. The note with it: fluorescent reporter strain; peptides tested at 1000, 50, 2.5, 0.125 nM or in dose-response. Here is the method: (§1) Peptides were evaluated for the ability to interfere with agr-mediated quorum sensing in S. aureus (AH1677, AH430, AH1747, and AH1872 for agr-I–IV, respectively) ([40]) using reporter strains expressing yellow fluorescent protein (YFP) upon agr activation. Interference with agr-mediated quorum sensing in S. epidermidis (AH3408, AH3623, and AH3409 for agr-I–III, respectively) ([45]), and S. lugdunensis (AH4031 for agr-I) ([37]) was evaluated using reporter strains expressing superfolder green fluorescent protein (sGFP) upon agr activation. Overnight cultures of the reporter strains were grown in TSB medium containing chloramphenicol (CAM, 10 μg/mL for S. aureus) or erythromycin (ERM, 10 μg/mL of S. epidermidis and S. lugdunensis) and diluted 1:100 in fresh TSB medium containing the same antibiotic. Assays were performed in sterile black 96-well plates with a clear bottom. […] DMSO stock solutions of peptides (1 mM) were diluted in TSB media and added (15 μL) in technical triplicate to the 96-well plate, followed by diluted bacterial overnight cultures (135 μL). Control wells for 100% agr activity were wells replacing the peptide solution with TSB medium (15 μL). […] Wells containing 150 μL TSB medium were used to measure background fluorescence. The 96-well plates were incubated in a humidified incubator at 37°C shaking at 1,000 rpm for 22–24 h and fluorescence (for GFP: excitation 479 nm, emission 520 nm; for YFP: excitation 500 nm, emission 541 nm; automatic gain), and OD600 values were subsequently measured using a plate reader. Background fluorescence was subtracted from all wells and further normalized to the corresponding OD600 value of the respective wells. The average fluorescence of control wells was used as a relative measure for 100% activation of the agr-circuit, and bar graphs were generated using GraphPad Prism 10.4 software. All assays were performed in at least a biological duplicate.
(§2) Overnight cultures of the reporter strains were grown in TSB medium containing chloramphenicol (CAM, 10 μg/mL for S. aureus) or erythromycin (ERM, 10 μg/mL of S. epidermidis and S. lugdunensis) and diluted 1:100 in fresh TSB medium containing the same antibiotic. Assays were performed in sterile black 96-well plates with clear bottoms. Peptide solutions (15 μL) in 1:5 serial dilutions from DMSO stock solutions (1 mM) in TSB medium were added to the 96-well plate in technical duplicate followed by diluted bacterial overnight cultures (135 μL). Control wells for 100% agr activity were wells replacing the peptide solution with TSB medium (15 μL). Wells containing 150 μL TSB medium were used to measure background fluorescence. The 96-well plates were incubated in a humidified incubator at 37°C shaking at 1,000 rpm for 22–24 h and fluorescence (for GFP: excitation 479 nm, emission 520 nm; for YFP: excitation 500 nm, emission 541 nm; automatic gain), and OD600 values were subsequently measured using a plate reader. Background fluorescence was subtracted from all wells and further normalized to the corresponding OD600 value of the respective wells. The average fluorescence of control wells was used as a relative measure for 100% activation of the agr-circuit. Relative agr activity was plotted to obtain IC50 values by non-linear regression with variable slope using GraphPad Prism 10.4 software. All assays were performed in biological triplicate.

The next assay concerns the target SA AgrC-I (Staphylococcus aureus, UniProt O07911). Kind of assay: β-Lactamase assay, reporter strain RN10829 (P2-agrA:P3-blaZ) with pagrC-I. In kind it is cell-based. An excerpt:
The β-lactamase reporter strain RN10829 (P2-agrA:P3-blaZ) ([62]), with pagrC-I ([63]), pagrC-II, pagrC-III, or pagrC-IV ([11]), substituting the native agr locus with a chromosomal integration of P2-agrA and P3-blaZ and a plasmid from which a wild-type variant of the corresponding AgrC is expressed, was used to assess inhibition and activation of the AgrC receptor via β-lactamase activity in response to varying concentrations of the QS modulating peptides. Overnight cultures of the reporter strains in TSB medium were diluted 1:250 in fresh TSB medium and grown to OD600 = 0.35–0.40 (early exponential phase) at 37°C. Peptide solutions (10 μL) in 1:10 serial dilutions from DMSO stock solutions (1 mM) in TSB medium (final concentrations = 10 μM–10 pM) were added to each well of a clear 96-well plate as well as solutions (10 μL) of cognate AIP (final concentration = 100 nM) in TSB medium followed by 80 μL of bacterial cells. […] The 96-well plates were incubated at 37°C shaking at 200 rpm for 1 h and immediately frozen down at −80°C to minimize growth during nitrocefin treatment. Next, the 96-well plates were thawed, and OD600 values were determined using a plate reader followed by the addition of 50 μL of nitrocefin solution to the wells (final concentration = 33.3 μg/mL). β-Lactamase activity was monitored at OD486 every 20 s for 10 min at 37°C using a plate-reader. Linear nitrocefin conversion rates were plotted to obtain IC50 values by non-linear regression with variable slope using GraphPad Prism 10.4 software. Assays were performed at least as duplicate determinations in biological triplicate.

The target in the next assay is SA AgrC-II (Staphylococcus aureus, UniProt O33587). Kind of assay: β-Lactamase assay, reporter strain RN10829 (P2-agrA:P3-blaZ) with pagrC-II. Format: cell-based. The text has this: (§3) The β-lactamase reporter strain RN10829 (P2-agrA:P3-blaZ) ([62]), with pagrC-I ([63]), pagrC-II, pagrC-III, or pagrC-IV ([11]), substituting the native agr locus with a chromosomal integration of P2-agrA and P3-blaZ and a plasmid from which a wild-type variant of the corresponding AgrC is expressed, was used to assess inhibition and activation of the AgrC receptor via β-lactamase activity in response to varying concentrations of the QS modulating peptides. Overnight cultures of the reporter strains in TSB medium were diluted 1:250 in fresh TSB medium and grown to OD600 = 0.35–0.40 (early exponential phase) at 37°C. Peptide solutions (10 μL) in 1:10 serial dilutions from DMSO stock solutions (1 mM) in TSB medium (final concentrations = 10 μM–10 pM) were added to each well of a clear 96-well plate as well as solutions (10 μL) of cognate AIP (final concentration = 100 nM) in TSB medium followed by 80 μL of bacterial cells. Control wells for 100% β-lactamase activity were wells replacing peptide solution with TSB media (10 μL), and control wells for 0% β-lactamase activity were wells replacing both peptide and cognate AIP solutions with TSB medium (20 μL). The 96-well plates were incubated at 37°C shaking at 200 rpm for 1 h and immediately frozen down at −80°C to minimize growth during nitrocefin treatment. Next, the 96-well plates were thawed, and OD600 values were determined using a plate reader followed by the addition of 50 μL of nitrocefin solution to the wells (final concentration = 33.3 μg/mL). β-Lactamase activity was monitored at OD486 every 20 s for 10 min at 37°C using a plate-reader. Linear nitrocefin conversion rates were plotted to obtain IC50 values by non-linear regression with variable slope using GraphPad Prism 10.4 software. Assays were performed at least as duplicate determinations in biological triplicate.

Another assay has as its target SA AgrC-III (Staphylococcus aureus, UniProt O33590). The experiment in a line: β-Lactamase assay, reporter strain RN10829 (P2-agrA:P3-blaZ) with pagrC-III. In kind it is cell-based.
Description: as §3

Another assay deals with SA AgrC-IV (Staphylococcus aureus, UniProt Q309Z2). The experiment in a line: β-Lactamase assay, reporter strain RN10829 (P2-agrA:P3-blaZ) with pagrC-IV. In kind it is cell-based. Conditions: 100 nM cognate AIP; ± SEM; -b = no inhibition recorded at the highest AIP concentration tested; -a = only partial inhibition observed; this study (curves in Fig. S22).
Description: as §3

For assay [1], the system named is S. epidermidis (SE) agr-I. The note with it: fluorescence, cited from earlier work.
Assay [2] concerns S. epidermidis (SE) agr-II. Conditions: fluorescence, cited from earlier work.
Assay [3] relates to S. epidermidis (SE) agr-III. The note with it: fluorescence, cited from earlier work.
A further assay deals with S. epidermidis agr-I (Staphylococcus epidermidis, UniProt Q5HMY3). Kind of assay: cell-based. In kind it is cell-based. Conditions: fluorescent reporter strain; peptides tested at 1000, 50, 2.5, 0.125 nM or in dose-response. Here is the method:
as §1, with “μL).” for “μL). Control wells for 100% agr activity were wells replacing the peptide solution with TSB medium (15 μL).”
as §2, with “Control wells for 100% agr activity were wells replacing the peptide solution with TSB medium (15 μL).” left out

A further assay concerns S. aureus (SA) agr-I. The note with it: fluorescence, cited from earlier work.
In another assay the test system is S. aureus (SA) agr-II. The note with it: fluorescence, cited from earlier work.
Another assay has as its system S. aureus (SA) agr-III. Conditions: fluorescence, cited from earlier work.
A further assay concerns S. aureus (SA) agr-IV. The note with it: fluorescence, cited from earlier work.

Sequence of SA AgrC-IV (Q309Z2 entry or part of it): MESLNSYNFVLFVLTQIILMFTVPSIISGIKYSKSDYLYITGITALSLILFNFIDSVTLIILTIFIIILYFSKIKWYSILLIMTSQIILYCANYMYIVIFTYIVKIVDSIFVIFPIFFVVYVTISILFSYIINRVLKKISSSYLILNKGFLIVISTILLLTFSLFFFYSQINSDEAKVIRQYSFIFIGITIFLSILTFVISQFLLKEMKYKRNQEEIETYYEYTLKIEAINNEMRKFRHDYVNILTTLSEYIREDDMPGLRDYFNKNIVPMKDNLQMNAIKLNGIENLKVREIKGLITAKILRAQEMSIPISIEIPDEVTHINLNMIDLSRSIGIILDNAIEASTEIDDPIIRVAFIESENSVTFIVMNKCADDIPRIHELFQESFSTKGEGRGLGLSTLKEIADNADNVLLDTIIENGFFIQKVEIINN
Sequence of SA AgrC-I (O07911 entry or part of it): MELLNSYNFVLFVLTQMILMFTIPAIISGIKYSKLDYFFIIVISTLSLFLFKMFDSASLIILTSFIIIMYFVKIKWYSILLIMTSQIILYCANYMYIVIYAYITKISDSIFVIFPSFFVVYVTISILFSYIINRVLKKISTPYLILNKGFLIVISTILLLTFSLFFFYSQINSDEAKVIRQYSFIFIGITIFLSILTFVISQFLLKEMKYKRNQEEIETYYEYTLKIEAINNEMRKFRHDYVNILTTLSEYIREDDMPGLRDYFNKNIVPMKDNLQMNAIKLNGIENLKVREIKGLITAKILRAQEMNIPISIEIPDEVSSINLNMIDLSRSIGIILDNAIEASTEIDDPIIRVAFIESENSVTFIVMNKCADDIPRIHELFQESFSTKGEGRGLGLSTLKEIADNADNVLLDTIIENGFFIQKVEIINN
Sequence of SA AgrC-II (O33587 entry or part of it): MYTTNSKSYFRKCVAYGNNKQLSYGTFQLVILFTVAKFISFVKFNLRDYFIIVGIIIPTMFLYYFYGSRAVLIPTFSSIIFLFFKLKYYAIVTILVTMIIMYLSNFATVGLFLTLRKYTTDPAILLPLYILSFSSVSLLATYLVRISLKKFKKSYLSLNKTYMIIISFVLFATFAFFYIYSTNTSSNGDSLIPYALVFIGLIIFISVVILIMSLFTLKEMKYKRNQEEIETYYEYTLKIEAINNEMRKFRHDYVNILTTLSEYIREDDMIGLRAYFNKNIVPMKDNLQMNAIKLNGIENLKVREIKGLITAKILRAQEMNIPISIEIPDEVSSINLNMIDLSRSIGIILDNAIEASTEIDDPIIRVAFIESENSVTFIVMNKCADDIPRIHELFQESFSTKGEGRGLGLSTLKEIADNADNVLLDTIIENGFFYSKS
Sequence of SA AgrC-III (O33590 entry or part of it): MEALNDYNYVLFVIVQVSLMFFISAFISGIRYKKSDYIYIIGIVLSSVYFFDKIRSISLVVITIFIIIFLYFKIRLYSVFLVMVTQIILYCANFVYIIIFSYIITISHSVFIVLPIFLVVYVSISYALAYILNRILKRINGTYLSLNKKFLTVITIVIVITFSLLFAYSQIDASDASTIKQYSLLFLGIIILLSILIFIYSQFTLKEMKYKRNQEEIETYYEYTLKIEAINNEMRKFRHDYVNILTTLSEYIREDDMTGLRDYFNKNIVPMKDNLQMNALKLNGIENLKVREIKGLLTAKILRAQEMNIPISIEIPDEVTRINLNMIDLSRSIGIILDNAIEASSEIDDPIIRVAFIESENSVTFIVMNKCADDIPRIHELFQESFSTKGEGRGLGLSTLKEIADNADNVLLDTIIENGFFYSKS
Sequence of S. epidermidis agr-I (Q5HMY3 entry or part of it): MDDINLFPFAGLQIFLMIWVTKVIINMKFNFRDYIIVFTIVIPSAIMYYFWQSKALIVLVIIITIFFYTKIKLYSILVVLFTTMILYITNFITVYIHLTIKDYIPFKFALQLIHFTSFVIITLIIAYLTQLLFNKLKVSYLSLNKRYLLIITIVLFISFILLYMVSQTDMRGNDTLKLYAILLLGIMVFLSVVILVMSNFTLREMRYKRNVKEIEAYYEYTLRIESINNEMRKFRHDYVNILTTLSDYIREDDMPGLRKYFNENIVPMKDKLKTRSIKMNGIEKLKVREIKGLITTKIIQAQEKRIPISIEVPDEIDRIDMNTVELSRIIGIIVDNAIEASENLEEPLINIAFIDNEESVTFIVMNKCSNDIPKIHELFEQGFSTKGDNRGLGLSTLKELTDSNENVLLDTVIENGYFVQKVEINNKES
Sequence of S. epidermidis agr-II (Q8VSX5 entry or part of it): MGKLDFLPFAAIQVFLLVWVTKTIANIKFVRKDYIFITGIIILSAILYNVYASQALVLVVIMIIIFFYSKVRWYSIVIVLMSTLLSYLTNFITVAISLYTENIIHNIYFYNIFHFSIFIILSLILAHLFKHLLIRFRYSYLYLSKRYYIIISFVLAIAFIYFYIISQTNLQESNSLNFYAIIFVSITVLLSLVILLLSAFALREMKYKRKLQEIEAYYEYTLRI

Turning to `CC(C)C[C@@H]1NC(=O)[C@H](Cc2ccc(O)cc2)NC(=O)[C@H](CO)NC(=O)[C@H](C)NC(=O)[C@@H](NC(=O)[C@@H]2CCCN2C(=O)[C@H](CC(N)=O)NC(=O)[C@H](Cc2ccc(O)cc2)NC(=O)[C@H](CCCCN)NC(=O)[C@H](C)NC(=O)[C@H](C)NC(=O)[C@@H](N)CC(N)=O)CSC1=O` [compound 7, S. epidermidis AIP-III] (H-NAAKYNPCASYL; thioester 8-C), on S. epidermidis agr-II, the “QS interaction in words (inhibition / activation), S. epidermidis agr-II” value is listed as “activator”. In addition, the IC50 is > 10000 nM on SA AgrC-I, > 10000 nM at SA AgrC-III and 34.3 nM in [1] (ref (11)). The “IC50, SA AgrC-II, b-lactamase assay” value at SA AgrC-II (100 nM cognate AIP, ± SEM, -b = no inhibition recorded at the highest AIP concentration tested, -a = only partial inhibition observed, this study (curves in Fig. S20)) is on record as “-b”. Besides, the “IC50, SA AgrC-IV, b-lactamase assay” value on SA AgrC-IV is “-b”. The “effect from supernatant (% inhibition, activation or no effect), SE agr-I” value in assay [1] (from supernatant, ref (18)) is ~ 50%. For the same compound, the “effect from supernatant (% inhibition, activation or no effect), SE agr-II” value in assay [2] (from supernatant, ref (18)) is on record as “no effect”. The “effect from supernatant (% inhibition, activation or no effect), SE agr-III” value in assay [3] (from supernatant, ref (18)) is “activation”.

Turning to `CC(C)[C@H](NC(=O)[C@H](CC(N)=O)NC(=O)[C@H](Cc1ccc(O)cc1)NC(=O)[C@@H](N)CO)C(=O)N[C@H]1CSC(=O)[C@H](Cc2ccccc2)NC(=O)[C@H](Cc2ccc(O)cc2)NC(=O)CNC(=O)CNC1=O` [compound 10, S. hominis AIP-I] (H-SYNVCGGYF; thioester 5-C; N-terminus assumed), on S. epidermidis agr-I, the “QS interaction in words (inhibition / activation), S. epidermidis agr-I” value is given as “activates”. Moreover, the IC50 was 224 ± 37 nM at SA AgrC-I; > 1000 nM against SA AgrC-II; 338 ± 83 nM against SA AgrC-III; 0.624 nM in the assay with S. aureus (SA) agr-I (ref (12)); 13 nM in the assay with S. aureus (SA) agr-I (ref (13)); 31 nM in the assay on S. aureus (SA) agr-II (ref (13)). In addition, the IC50 is 5 nM in the assay on S. aureus (SA) agr-III (ref (13)), 2910 nM with S. aureus (SA) agr-IV (ref (13)), 34 nM in [2] (ref (13)) and 16 nM in assay [3] (ref (13)). In addition, at SA AgrC-IV, the “IC50, SA AgrC-IV, b-lactamase assay” value is given as “-b”. Moreover, in the assay with S. aureus (SA) agr-II (by supernatant, ref (12)), the “inhibition by supernatant, SA agr-II” value is on record as ~ 70%. For the same compound, the “inhibition by supernatant, SA agr-III” value in the assay with S. aureus (SA) agr-III (by supernatant, ref (12)) is on record as ~ 80%. Also, in the assay with S. aureus (SA) agr-IV (by supernatant, ref (12)), the “inhibition by supernatant, SA agr-IV” value is on record as “no inhibition”.

The values above are taken from article PMC12345137 (mBio, 2025).
